pEC50, pIC50: −log10 of the molar value. Calls of active or inactive are those of the source.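 The calls were made as follows: active = compounds giving half or more protection of infected cells from virus-caused growth loss, again on retest; inactive = the rest.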 Where a SMILES comes first, the peptide text is derived from it. Bridges are numbered along the chain shown (N, C = ends). [ ]: non-standard residue; d: D form. The star is where a group is joined. ξ: configuration not given here. ξD = NC(CC(=O)O)C(=O)O; Boc = CC(C)(C)OC(=O)*; Aib = CC(C)(N)C(=O)O; OtBu = CC(C)(C)O*
Tested on: CEM cells HIV-1 protection, formazan growth assay
Assay: NCI AIDS Antiviral Assay
Conditions: for pIC50: measured here: growth of uninfected CEM cells
Procedure, shortened: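 Screen of anti-HIV-1 activity in human CEM cells using a formazan-based growth measurement at five drug concentrations. Hits with 50% or greater protection were repeated, and confirmation required reproducible complete protection.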

## Cc1c([O-])c([O-])c(C)c2c1OCO2.[C-]#[O+].[C-]#[O+].[C-]#[O+].[C-]#[O+].[Re]
  pEC50: < 3.70
  pIC50: 4.50

## CC(C)CCCC(C)[C@H]1CCC(C2C[C@@H](O)[C@@H]3CC(O)[C@@H](O)C[C@]3(CO)C2=O)[C@]1(C)CCO (stereo partly specified)
  pEC50: < 3.70
  pIC50: 4.46

## NC(=S)N/N=C(\Cc1nc2ccc(Cl)cc2[nH]c1=O)C(=O)Nc1ccc(Cl)cc1
  pEC50: < 4.38
  pIC50: < 4.38

## COC(=O)CCN1c2ccccc2Sc2ccccc21
  pEC50: < 4.18
  pIC50: < 4.18

## Clc1ccc(-c2c(C3=NCCN3)nnn2-c2ccccc2)cc1
  pEC50: < 3.67
  pIC50: 3.76

## CCCCn1[nH]c(=O)ccc1=O
  pEC50: < 2.83
  pIC50: 2.85

## c1cnc2c(c1)Oc1nc3ccccc3nc1S2
  pEC50: < 4.04
  pIC50: 4.84

## CC(=O)Nc1ccc(/C=C2\N=C(c3ccccc3)OC2=O)cc1
  pEC50: < 4.91
  pIC50: < 4.91

## O=C1C(Cl)N(c2ccc(Cl)cc2)C1c1c[nH]c2ccccc12 (stereo unspecified)
  pEC50: < 3.69
  pIC50: 5.29

## COc1ccc2c3c([nH]c2c1[N+](=O)[O-])C(C)N(C(=O)/C=C/c1ccccc1)CC3 (stereo unspecified)
  outcome: inactive

## CCOC(=O)/C(=C\c1cccc(OC)c1)P(=O)(OCC)OCC
  pEC50: < 3.28
  pIC50: 4.94

## CCOC(=O)C1(c2ccccc2)CCNC(=O)CC1 (stereo unspecified)
  pEC50: < 3.02
  pIC50: < 3.02

## Cc1ccc(S(=O)(=O)N2CCSCCN(S(=O)(=O)c3ccc(C)cc3)CCN(S(=O)(=O)c3ccc(C)cc3)CC2)cc1
  pEC50: < 5.38
  pIC50: < 5.38

## CN(C)CCCNC(=O)c1cc(NC(=O)c2cc(NC(=O)c3cc(NC(=O)c4cncc(C(=O)Nc5cc(C(=O)Nc6cc(C(=O)Nc7cc(C(=O)NCCCN(C)C)n(C)c7)n(C)c6)n(C)c5)c4)cn3C)cn2C)cn1C
  pEC50: < 4.00
  pIC50: < 4.00

## O=C1OCCC[C@H]2O[C@@H](COCc3ccccc3)C[C@@H]12
  pEC50: < 3.70
  pIC50: < 3.70

## CCOC(=O)c1ccc(N2CN3c4ccccc4CCC3C2c2c[nH]c(=O)[nH]c2=O)cc1 (stereo unspecified)
  pEC50: < 4.16
  pIC50: < 4.16

## O=C1/C(=C/c2ccc(F)cc2)CCC/C1=C\c1ccc(F)cc1
  pEC50: < 4.63
  pIC50: < 4.63

## Oc1cc2c(cc1O)-c1[nH]ncc1CC2
  pEC50: < 4.17
  pIC50: 4.48

## CCOC(=O)CCC1(C(=O)OC)CCCC1=O (stereo unspecified)
  pEC50: < 2.99
  pIC50: < 2.99

## O=C(CN1C(=O)c2cccc3c(Br)ccc(c23)C1=O)c1ccc(F)cc1
  pEC50: < 3.70
  pIC50: 4.28

## C[C@H](CCCN1CCN(C)CC1)[C@H]1CC[C@H]2[C@@H]3CC[C@@H]4C[C@H](O)CC[C@]4(C)[C@H]3CC[C@]12C
  pEC50: < 4.30
  pIC50: 5.51

## NC(CCCCNCc1ccccc1)C(=O)O (stereo unspecified)
  pEC50: < 2.98
  pIC50: < 2.98

## CN(C)C(=S)/N=c1\ss/c(=N\C(=S)N(C)C)n1-c1ccccc1
  pEC50: < 3.70
  pIC50: 3.72

## COc1ccc(OC)c(NC(=O)CCC/C(CC(=O)c2ccc(O)c(OC)c2)=N\Nc2nnc(C)n2N)c1
  pEC50: < 5.14
  pIC50: < 5.14

## Cc1cccc2c1C(=O)N(CC[P+](c1ccccc1)(c1ccccc1)c1ccccc1)C2=O
  pEC50: < 3.70
  pIC50: 5.10

## Nc1cc2cc([N+](=O)[O-])ccc2oc1=O
  pEC50: < 3.75
  pIC50: < 3.75

## COc1ccc2c(c1OC)C1CCCCC1SCC2=O (stereo unspecified)
  pEC50: < 3.70
  pIC50: 3.98

## O=C1C2CCc3cnn(-c4ccccc4)c3C2C(=O)N1c1ccccc1 (stereo unspecified)
  pEC50: < 3.70
  pIC50: < 3.70

## N#CCC1C2CC3C(C2=O)C13 (stereo unspecified)
  pEC50: < 3.70
  pIC50: < 3.70

## Cc1cc2c(C(C)C)c(O)c(O)c(C=O)c2c(O)c1-c1c(C)c(N(c2cccc3ccccc23)c2cccc3ccccc23)c2c(C(C)C)c(O)c(O)c(C=O)c2c1O
  outcome: inactive

## N#Cc1ccccc1SSc1ccccc1C#N
  pEC50: < 3.70
  pIC50: 4.93

## Cn1nc(-c2ccccc2)c2c(/C=C/c3ccccc3)onc2c1=O
  outcome: inactive

## COc1ccc(S(=O)Cc2cc(OC)ccc2OC)cc1 (stereo unspecified)
  outcome: inactive

## CC(C)(C)c1cc(S(=O)(=O)O)c2oc(-c3ccccc3)cc(=O)c2c1
  pEC50: < 3.70
  pIC50: < 3.70

## CCN(CC)CCCNC(=O)c1ccccc1Nc1c(Cl)cccc1Cl
  pEC50: < 3.70
  pIC50: 5.17

## CN(C)CCN1N=Nc2cccc3cccc1c23
  outcome: inactive

## Cc1ccsc1/C=N/Nc1ccc2ccccc2n1
  pEC50: < 3.70
  pIC50: 4.73

## COC(=O)C(C)(C)NC(=O)C(C)(C)NC(=O)C(CC(=O)OC(C)(C)C)NC(=O)OC(C)(C)C (stereo unspecified) (Boc-[ξD](OtBu)-[Aib]-[Aib]-OMe)
  pEC50: < 3.70
  pIC50: < 3.70

## Brc1cccc[n+]1Cc1ccccc1C[n+]1ccccc1Br
  pEC50: < 3.70
  pIC50: < 3.70

## O=C1C2c3[nH]c4ccccc4c3[C@@H]3CCCCC3C2C(=O)N1c1ccccc1 (stereo partly specified)
  outcome: inactive

## c1cc(-c2ccsc2-c2ccsc2)cs1
  pEC50: < 3.70
  pIC50: 4.28

## CC(=O)N1CCc2cc(S(C)(=O)=O)c3c(c21)CCC3
  outcome: inactive

## CC1=C(/C=C/C(C)=C/C2CC(N(C)C)=CC(=O)O2)C(C)(C)CCC1 (stereo unspecified)
  outcome: inactive

## O=C1/C(=C\c2cccc(Oc3ccccc3)c2)SC(c2ccccc2)N1c1cccc([N+](=O)[O-])c1 (stereo unspecified)
  pEC50: < 3.70
  pIC50: 4.40

## COc1cc(/C=C2\N=C(C)N(n3c(-c4ccccc4)nc4ccccc4c3=O)C2=O)cc(OC)c1OC
  pEC50: < 3.70
  pIC50: 4.41

## O=C(O)/C=C/S(=O)(=O)O
  pEC50: < 3.70
  pIC50: < 3.70

## CCCCC[C@@H]1CCCC2N=C(CCCCC3OCCO3)CCC21 (stereo partly specified)
  outcome: inactive

## N#Cc1c(NCCc2ccc(F)cc2)c2ccccc2n2c1nc1ccccc12
  pEC50: 4.96
  pIC50: < 3.70

## O=C(/C=C/c1ccc(Br)cc1)c1ccccc1
  pEC50: < 4.74
  pIC50: 5.02

## COC(=O)c1c(CC(Cc2ccc3c(c2)CCCC3)C(=O)OC)ccc2c1CCCC2 (stereo unspecified)
  pEC50: < 3.70
  pIC50: 4.02

## O=S1(=O)C2CCCCC2(N2CCOCC2)C1c1ccccc1 (stereo unspecified)
  pEC50: < 3.39
  pIC50: 4.34

## Cc1ccc(-n2c(=S)[nH]c3ccc(Br)cc3c2=O)cc1
  pEC50: < 3.57
  pIC50: 4.05

## C[C@]12CC[C@H](OS(=O)(=O)O)CC1CCC1C2CC[C@@]2(C)C1CC[C@@H]2CO (stereo partly specified)
  pEC50: < 4.22
  pIC50: < 4.22

## CC(=O)/C=C1/C(=O)C(CC(C)C)=C1CC(C)C
  pEC50: 3.85
  pIC50: < 3.70

## COC(=O)c1cc(O)ccc1NC(=O)c1ccc(O)cc1
  pEC50: < 3.04
  pIC50: 3.44

## COc1ccccc1N=Nc1c(-c2ccccc2)nn(C(=O)CC(=O)Nc2ccccc2Cl)c1-c1ccccc1
  pEC50: < 4.88
  pIC50: < 4.88

## O=C(O)Cc1cc(=O)oc2cc(O)ccc12
  pEC50: < 2.95
  pIC50: < 2.95

## C/C=C/C=C1\C=Cc2c(C(=O)OC)coc(=O)c21
  pEC50: < 3.70
  pIC50: 4.45

## [Cu+2].[O-]/C(=N\N=C\c1ccccn1)c1ccccc1O.[O-]/C(=N\N=C\c1ccccn1)c1ccccc1O
  pEC50: < 3.70
  pIC50: 4.99

## CC(=O)C[P+](c1ccccc1)(c1ccccc1)c1ccccc1
  pEC50: < 3.70
  pIC50: 4.21

## COc1nc(N)c(N=O)c(=O)n1C
  outcome: inactive

## COCC1OC2(CCC[C@@H]2O)O[C@H]1COC (stereo partly specified)
  outcome: inactive

## O=C1c2ccccc2C(=O)N1OCCCCON1C(=O)c2ccccc2C1=O
  pEC50: < 3.70
  pIC50: < 3.70

## CC1(C)c2ccccc2C(=O)C1(Br)Cc1ccccc1 (stereo unspecified)
  pEC50: < 3.70
  pIC50: 5.02

## Fc1ccc(NC2=NCCN=C(Nc3ccc(F)cc3)SS2)cc1
  pEC50: < 3.70
  pIC50: 4.61

## C=CCCCCCCCCC(=O)NC(C)C(C)(C)C (stereo unspecified)
  pEC50: < 3.70
  pIC50: 4.13

## NC(=O)[N+](=CC(=S)Nc1ccccc1Cl)C(N)=O
  pEC50: < 3.70
  pIC50: < 3.70

## Cc1[nH]c2c(C)cccc2c1C1Cc2ccccc2N1 (stereo unspecified)
  outcome: inactive

## CS(=O)(=O)c1[nH]nc2[nH]c(=O)[nH]c(=O)c12
  pEC50: < 3.70
  pIC50: < 3.70

## O=C1CN(c2ccccc2)CC(=O)N2Cc3ccccc3CN12
  pEC50: < 4.35
  pIC50: < 4.35

## COC(=O)C1CCC(=O)NCCCCC(NC(=O)C(N)CC(=O)O)C(=O)N1 (stereo not drawn) (H-Asp-Lys-Glu-OMe; lactam 2-3; configuration not given here)
  pEC50: < 3.70
  pIC50: 4.04

## Cn1c(=O)[nH]c2nncnc2c1=O
  pEC50: < 3.70
  pIC50: 4.50

## O=C(O)COc1ccc(C(=O)/C(SS/C(C(=O)c2ccc(OCC(=O)O)c(Cl)c2Cl)=C2\C=C(c3ccc(F)cc3)SS2)=C2/C=C(c3ccc(F)cc3)SS2)c(Cl)c1Cl
  pEC50: < 4.43
  pIC50: < 4.43

## O=C(Cc1ccccc1)N/N=C(\C1=Nc2ccc([N+](=O)[O-])cc2NC1O)C(O)c1ccc([N+](=O)[O-])cc1 (stereo unspecified)
  pEC50: < 4.29
  pIC50: 4.32

## CC(C)=CC(=O)Cc1nc2cc(C)c(C)cc2[nH]c1=O
  outcome: inactive

## C=CCC1C(=O)C(C(=O)OC)N2CCc3c([nH]c4ccccc34)C12 (stereo unspecified)
  pEC50: < 3.55
  pIC50: 3.86

## CC(C)(CO)NC(=O)c1cccs1
  pEC50: < 3.70
  pIC50: < 3.70

## O=C(N/N=C/C=C/c1ccccc1)c1ccccc1Nc1ccccc1C(=O)N/N=C/C=C/c1ccccc1
  pEC50: < 4.46
  pIC50: 5.31

## COc1cc(CC(=O)c2ccc3c(c2)OCO3)cc(OC)c1OC
  pEC50: < 3.69
  pIC50: < 3.69

## CC(=O)Nc1cc2c(cc1[N+](=O)[O-])-c1ccccc1C2=O
  pEC50: < 3.70
  pIC50: < 3.70

## O=C1CSC(c2ccc(Cl)cc2)N1c1ccc(Oc2ccc(Cl)cc2)c(Cl)c1 (stereo unspecified)
  pEC50: < 3.70
  pIC50: 4.62

## COc1c(N2CCCCC2)c2c(=O)c3ccccc3oc2c2cc(C)oc12
  pEC50: < 3.70
  pIC50: 4.95

## CCS(=O)(=O)CCn1cnc2c1c(=O)n(C)c(=O)n2C
  pEC50: < 3.70
  pIC50: < 3.70

## N#C[C@@H](c1nc2ccccc2s1)c1ncccc1[N+](=O)[O-]
  pEC50: < 3.70
  pIC50: 4.70

## CCCCCCCCCCCC(=O)OCC1OC(OC)C(NC(=O)N(CCCl)N=O)C(O)C1O (stereo unspecified)
  pEC50: < 4.58
  pIC50: 4.65

## Nc1[nH]c(=S)nc2snnc12
  pEC50: < 3.70
  pIC50: < 3.70

## COc1cc(-c2oc3cc(OC)c(OC)c(OC)c3c(=O)c2OC)cc(OC)c1OC
  pEC50: < 3.70
  pIC50: 4.58
